Like-named read-outs stand apart in the source and are kept apart here.
What was measured:
[1] = tested on: H460 human non-small cell lung cancer (NSCLC) cells; assay: Clonogenic cell survival after radiation, H460 cells; type: cell-based; details: for Genistein (D0): 5 μM nanoparticulate genistein 24 hours before radiation; for DMF (Dose Modifying Factor): 5 μM nanoparticulate genistein vs vehicle, radiosensitization defined as DMF>1.1
Text: (§1) In the experiments described herein, a R10.5M5 double scattered proton beam (a proton beam with a maximum range of 10.5 cm where the SOBP comprises the final 5 cm) was utilized with precise positioning of culture dishes at specific points at the entrance, middle, and end of the SOBP. For this beam, the “low LET” was at 2 cm depth, corresponding to about 4 keV/μM, and the high LET was at 10 cm depth, corresponding to about 30 keV/μM. As used herein, the term “low LET” refers to about one to about ten (e.g., about one to three, two to four, three to five, four to six, five to seven, six to eight, seven to nine, or eight to ten) keV/μM unrestricted LET as determined from tables of proton stopping power in liquid water, available from the National Institute of Standards and Technology (stopping power and range tables for protons; “PSTAR”). The term “high-LET” refers to about 20 to 40 (e.g., 20 to 25, 25 to 30, 30 to 35, or 35 to 40) keV/μM, again as determined from PSTAR unrestricted LET tables.
(§2) Studies were conducted to determine whether a nanoparticulate genistein formulation affects cellular radiosensitivity to protons with increasing LET. Normal and cancer cell lines were exposed to low, intermediate, or high LET proton radiation. These experiments used the H1299 and H460 NSCLC cell lines, which are relevant to lung cancer research during medical radiation exposure as well as nonmedical or accidental radiation exposure. These cell lines were derived from human cancer patients and have well-known radiobiologic properties, with H1299 being relatively less radiosensitive. Both lines harbor Ras pathway activating mutations (H460, KRAS; H1299, NRAS). MRC5 human lung fibroblasts also were used as representative normal cells. Each cell line was obtained from the American Type Culture Collection (ATCC) and tested for mycoplasma regularly. Clonogenic cell survival studies were performed as described elsewhere (Cengel et al., Neoplasia 9(4):341-348, 2007). Briefly, cells were plated 24 hours prior to radiation at about 50% confluence. […] Cells were radμated using either 250 KVp x-rays or protons with lower vs. higher LET. […]
(§3) Relative radiosensitivity was numerically compared using a standard variable, D0 (the dose of radiation needed to reduce the surviving fraction by a factor of 1/e), which was determined from the positive solution to the quadratic equation of the form: βD^2+αD−1=0, where α and β are determined from the LQ survival curve fit as above. The Dose Modifying Factor (DMF) was determined by the quotient: […]

[2] = canines; compared to formulations containing non-micronized genistein; cited from earlier work
[3] = mice; compared to formulations containing non-micronized genistein; cited from earlier work
[4] = tested on: MRC5 normal human lung fibroblasts; assay: Clonogenic cell survival after radiation, MRC5 cells; type: cell-based; details: for Genistein (D0): 5 μM nanoparticulate genistein 24 hours before radiation; for DMF (Dose Modifying Factor): 5 μM nanoparticulate genistein vs vehicle
Text: as §1, §2, §3

[5] = humans; compared to formulations containing non-micronized genistein; cited from earlier work
[6] = tested on: H1299 human NSCLC cells; assay: Clonogenic cell survival after radiation, H1299 cells; type: cell-based; details: for Genistein (D0): 5 μM nanoparticulate genistein 24 hours before radiation; for DMF (Dose Modifying Factor): 5 μM nanoparticulate genistein vs vehicle
Text: as §1
Studies were conducted to determine whether a nanoparticulate genistein formulation affects cellular radiosensitivity to protons with increasing LET. Normal and cancer cell lines were exposed to low, intermediate, or high LET proton radiation. These experiments used the H1299 and H460 NSCLC cell lines, which are relevant to lung cancer research during medical radiation exposure as well as nonmedical or accidental radiation exposure. These cell lines were derived from human cancer patients and have well-known radiobiologic properties, with H1299 being relatively less radiosensitive. Both lines harbor Ras pathway activating mutations (H460, KRAS; H1299, NRAS). MRC5 human lung fibroblasts also were used as representative normal cells. Each cell line was obtained from the American Type Culture Collection (ATCC) and tested for mycoplasma regularly. Clonogenic cell survival studies were performed as described elsewhere (Cengel et al., Neoplasia 9(4):341-348, 2007). Briefly, cells were plated 24 hours prior to radiation at about 50% confluence. […] Cells were radμated using either 250 KVp x-rays or protons with lower vs. higher LET. To vary the proton LET, cell dishes were placed at a depth of 2 cm (D2, low LET) or 10 cm (D10, high LET) in a R10.5M5 double scattered proton beam—a double scattered proton beam with a maximum range of 10.5 cm and a modulated depth of 5 cm, meaning that the Spread-out Bragg peak (SOBP) began roughly at a depth of 5.5 cm. In this configuration, the D2 and D10 positions corresponded to the entrance and terminal portions of the SOBP, respectively. After exposure to radiation, cells were trypsinized into a single cell suspension and re-plated at various densities without nanoparticulate genistein. About two weeks later (typically 13 to 16 days, depending on colony size), plates were rinsed and stained using crystal violet/ethanol, and colonies were enumerated using an Oxford Optronix automated colony counter with a minimum threshold size of 50 cells to define a colony. […]
as §3

[7] = High LET Protons (D10, 10 cm depth)

SMILES: O=c1c(-c2ccc(O)cc2)coc2cc(O)cc(O)c12 [Genistein, 5,7-dihydroxy-3-(4-hydroxyphenyl)-chromen-4-one]
- Genistein (D0) [1, 7]: 2.23
- DMF (Dose Modifying Factor) ([1]; High LET Protons): 1.04
- Genistein (D0) ([1]; X-Rays (250 KVp), D0 = dose reducing surviving fraction by 1/e): 2.41
- DMF (Dose Modifying Factor) ([1]; X-Rays): 1.07
- oral bioavailability [2]: increased oral bioavailability
- oral bioavailability [3]: increased oral bioavailability
- Genistein (D0) [4, 7]: 1.26
- DMF (Dose Modifying Factor) ([4]; High LET Protons): 1.07
- Genistein (D0) ([4]; X-Rays (250 KVp)): 1.38
- DMF (Dose Modifying Factor) ([4]; X-Rays): 1.01
- oral bioavailability [5]: increased oral bioavailability
- Genistein (D0) [6, 7]: 3.03
- DMF (Dose Modifying Factor) ([6]; High LET Protons, radiosensitization defined as DMF>1.1): 1.35
- Genistein (D0) ([6]; X-Rays (250 KVp)): 4.28
- DMF (Dose Modifying Factor) ([6]; X-Rays, radiosensitization defined as DMF>1.1): 0.97
- DMF (Dose Modifying Factor) ([6]; lower LET protons (D2, 2 cm depth)): 1.09

Source: patent US12403195B2, “Sensitizing cells to proton radiation” (Humanetics Corporation, priority 2017, dated 2025)
